From ChEMBL document CHEMBL5241131, “2-Anilino-4-(1-methyl-1H-pyrazol-4-yl)pyrimidine-derived CDK2 inhibitors as anticancer agents: Design, synthesis & evaluation” (Bioorg Med Chem, 2023)
Values belong to the compound of their own block, whether it stands above or below them. Calls of active or inactive are those of the source. The calls are words filed in the database; no cut-off is given here.

Legend:
[1] = tested on: HCT-116; experiment: Induction of cell cycle arrest in human HCT-116 cells assessed as accumulation of cells at G1 phase at 1 uM incubated for 24 hrs by propidium iodide staining based flow cytometry (reference value: 51.33%); format: functional
[2] = tested on: HCT-116; experiment: Induction of cell cycle arrest in human HCT-116 cells assessed as accumulation of cells at S phase at 1 uM incubated for 24 hrs by propidium iodide staining based flow cytometry (reference value: 18.01%); format: functional
[3] = tested on: HCT-116; experiment: Induction of apoptosis in human HCT-116 cells assessed as viable cells at 1 uM incubated for 72 hrs by AnnexinV-FITC/propidium iodide staining based flow cytometry (reference value: 93.43%); format: functional; settings: read-out: Activity
[4] = tested on: HCT-116; experiment: Induction of apoptosis in human HCT-116 cells assessed as necrotic cells at 1 uM incubated for 72 hrs by AnnexinV-FITC/propidium iodide staining based flow cytometry (Rvb =0.71%); format: functional
[5] = tested on: HCT-116; experiment: Induction of apoptosis in human HCT-116 cells assessed as increase in cleaved PARP level at 1 uM incubated for 24 hrs by Western blot analysis; format: functional, cell-based
[6] = tested on: HCT-116; experiment: Induction of apoptosis in human HCT-116 cells assessed as early apoptotic cells at 1 uM incubated for 72 hrs by AnnexinV-FITC/propidium iodide staining based flow cytometry (reference value: 2.95%); format: functional
[7] = tested on: HCT-116; experiment: Induction of apoptosis in human HCT-116 cells assessed as late apoptotic cells at 1 uM incubated for 72 hrs by AnnexinV-FITC/propidium iodide staining based flow cytometry (reference value: 2.91%); format: functional
[8] = tested on: HCT-116; experiment: Induction of cell cycle arrest in human HCT-116 cells assessed as accumulation of cells at G2/M phase at 1 uM incubated for 24 hrs by propidium iodide staining based flow cytometry (reference value: 28.37%); format: functional
[9] = tested on: HCT-116; experiment: Induction of cell cycle arrest in human HCT-116 cells assessed as accumulation of cells at sub G1 phase at 1 uM incubated for 24 hrs by propidium iodide staining based flow cytometry (reference value: 0.24%); format: functional
[10] = target: CDK9/Cyclin T (Homo sapiens, UniProt P50750); experiment: Inhibition of CDK9/cyclin T (unknown origin) assessed as inhibition constant; format: protein-complex assay
[11] = tested on: U-251; experiment: Antiproliferative activity against human U-251 cells assessed as inhibition of cell growth incubated for 72 hrs by MTT assay; format: functional
[12] = tested on: HCT-116; experiment: Antiproliferative activity against human HCT-116 cells assessed as inhibition of cell growth incubated for 72 hrs by MTT assay; format: functional
[13] = tested on: NCI-H460; experiment: Antiproliferative activity against human NCI-H460 cells assessed as inhibition of cell growth incubated for 72 hrs by MTT assay; format: functional
[14] = tested on: OAW-28; experiment: Antiproliferative activity against human OAW-28 cells assessed as inhibition of cell growth incubated for 72 hrs by MTT assay; format: functional
[15] = tested on: COLO 205; experiment: Antiproliferative activity against human COLO 205 cells assessed as inhibition of cell growth incubated for 72 hrs by MTT assay; format: functional
[16] = Antiproliferative activity against human COV318 cells assessed as inhibition of cell growth incubated for 72 hrs by MTT assay; format: functional
[17] = target: CDK9/cyclin T1 (Homo sapiens, UniProt P50750); experiment: Inhibition of CDK9/cyclin T1 (unknown origin) assessed as inhibition constant incubated for 30 to 60 mins presence of dithiothreitol by Cheng-Prusoff equation analysis; format: protein-complex assay
[18] = tested on: HT-29; experiment: Antiproliferative activity against human HT-29 cells assessed as inhibition of cell growth incubated for 72 hrs by MTT assay; format: functional
[19] = tested on: MV4-11; experiment: Antiproliferative activity against human MV4-11 cells assessed as inhibition of cell growth incubated for 72 hrs by MTT assay; format: functional
[20] = tested on: OVCAR-5; experiment: Antiproliferative activity against human OVCAR-5 cells assessed as inhibition of cell growth incubated for 72 hrs by MTT assay; format: functional
[21] = tested on: OV-90; experiment: Antiproliferative activity against human OV-90 cells assessed as inhibition of cell growth incubated for 72 hrs by MTT assay; format: functional
[22] = tested on: MDA-MB-231; experiment: Antiproliferative activity against human MDA-MB-231 cells assessed as inhibition of cell growth incubated for 72 hrs by MTT assay; format: functional
[23] = target: T1, Cyclin-dependent kinase 2/cyclin E (Homo sapiens, UniProt P24941); experiment: Inhibition of CDK2/cyclin E (unknown origin) assessed as inhibition constant incubated for 30 to 60 mins presence of dithiothreitol by Cheng-Prusoff equation analysis; format: protein-complex assay
[24] = Antiproliferative activity against human COV504 cells assessed as inhibition of cell growth incubated for 72 hrs by MTT assay; format: functional
[25] = tested on: A2780; experiment: Antiproliferative activity against human A2780 cells assessed as inhibition of cell growth incubated for 72 hrs by MTT assay; format: functional
[26] = target: Cyclin-dependent kinase 5/CDK5 activator 1 (Homo sapiens, UniProt Q00535); experiment: Inhibition of CDK5/p25 (unknown origin) assessed as inhibition constant incubated for 30 to 60 mins presence of dithiothreitol by Cheng-Prusoff equation analysis; format: protein-complex assay
[27] = tested on: U-937; experiment: Antiproliferative activity against human U-937 cells assessed as inhibition of cell growth incubated for 72 hrs by MTT assay; format: functional
[28] = tested on: KM12; experiment: Antiproliferative activity against human KM12 cells assessed as inhibition of cell growth incubated for 72 hrs by MTT assay; format: functional
[29] = tested on: ES-2; experiment: Antiproliferative activity against human ES2 cells assessed as inhibition of cell growth incubated for 72 hrs by MTT assay; format: functional
[30] = tested on: NCI-H82; experiment: Antiproliferative activity against human NCI-H82 cells assessed as inhibition of cell growth incubated for 72 hrs by MTT assay; format: functional
[31] = target: T2, Cyclin-dependent kinase 1/cyclin B (Homo sapiens, UniProt P06493); experiment: Inhibition of CDK1/Cyclin B (unknown origin) assessed as inhibition constant incubated for 30 to 60 mins presence of dithiothreitol by Cheng-Prusoff equation analysis; format: protein-complex assay
[32] = tested on: HCT-116; experiment: Induction of apoptosis in human HCT-116 cells assessed as necrotic cells at 0.5 uM incubated for 72 hrs by AnnexinV-FITC/propidium iodide staining based flow cytometry (Rvb =0.71%); format: functional
[33] = tested on: HCT-116; experiment: Induction of apoptosis in human HCT-116 cells assessed as late apoptotic cells at 0.5 uM incubated for 72 hrs by AnnexinV-FITC/propidium iodide staining based flow cytometry (reference value: 2.91%); format: functional
[34] = tested on: HCT-116; experiment: Induction of DNA damage in human HCT-116 cells assessed as increase in H2AX phosphorylation at Ser139 residue at 0.5 to 1 uM incubated for 24 hrs by Western blot analysis; format: functional, cell-based; settings: dose 0.5-1 µM
[35] = tested on: HCT-116; experiment: Induction of cell cycle arrest in human HCT-116 cells assessed as accumulation of cells at G2/M phase at 0.5 uM incubated for 24 hrs by propidium iodide staining based flow cytometry (reference value: 28.37%); format: functional
[36] = tested on: HCT-116; experiment: Induction of cell cycle arrest in human HCT-116 cells assessed as accumulation of cells at G1 phase at 0.5 uM incubated for 24 hrs by propidium iodide staining based flow cytometry (reference value: 51.33%); format: functional
[37] = target: Cyclin-dependent kinase 2 (Homo sapiens) (UniProt P24941); experiment: Inhibition of CDK2 in human HCT-116 cells assessed as reduction in phosphorylation at Thr821 residue incubated for 24 hrs by Western blot analysis; format: cell-based; settings: dose 0.5-1 µM
[38] = tested on: HCT-116; experiment: Induction of apoptosis in human HCT-116 cells assessed as viable cells at 0.5 uM incubated for 72 hrs by AnnexinV-FITC/propidium iodide staining based flow cytometry (reference value: 93.43%); format: functional; settings: read-out: Activity
[39] = target: Cyclin-dependent kinase 2 (Homo sapiens) (UniProt P24941); experiment: Inhibition of CDK2 in human HCT-116 cells assessed as reduction in phosphorylation at Serine 807/811 residue incubated for 24 hrs by Western blot analysis; format: cell-based; settings: dose 0.5-1 µM
[40] = tested on: HCT-116; experiment: Induction of apoptosis in human HCT-116 cells assessed as increase in cleaved PARP level at 0.5 to 1 uM incubated for 24 hrs by Western blot analysis; format: functional, cell-based; settings: dose 0.5-1 µM
[41] = tested on: HCT-116; experiment: Downregulation of CDC25B expression in human HCT-116 cells at 0.5 to 1 uM incubated for 24 hrs by Western blot analysis; format: functional, cell-based; settings: dose 0.5-1 µM
[42] = tested on: HCT-116; experiment: Induction of cell cycle arrest in human HCT-116 cells assessed as accumulation of cells at sub G1 phase at 0.5 uM incubated for 24 hrs by propidium iodide staining based flow cytometry (reference value: 0.24%); format: functional
[43] = tested on: HCT-116; experiment: Induction of apoptosis in human HCT-116 cells assessed as early apoptotic cells at 0.5 uM incubated for 72 hrs by AnnexinV-FITC/propidium iodide staining based flow cytometry (reference value: 2.95%); format: functional
[44] = tested on: HCT-116; experiment: Induction of cell cycle arrest in human HCT-116 cells assessed as accumulation of cells at S phase at 0.5 uM incubated for 24 hrs by propidium iodide staining based flow cytometry (reference value: 18.01%); format: functional
[45] = target: T1, Cyclin-dependent kinase 2/cyclin E; experiment: Inhibition of CDK2/cyclin E (unknown origin) assessed as inhibition constant; format: protein-complex assay
[46] = target: T2, Cyclin-dependent kinase 1/cyclin B; experiment: Inhibition of CDK1/Cyclin B (unknown origin) assessed as inhibition constant; format: protein-complex assay

CDK9/cyclin T1, sequence (O60563 whole entry): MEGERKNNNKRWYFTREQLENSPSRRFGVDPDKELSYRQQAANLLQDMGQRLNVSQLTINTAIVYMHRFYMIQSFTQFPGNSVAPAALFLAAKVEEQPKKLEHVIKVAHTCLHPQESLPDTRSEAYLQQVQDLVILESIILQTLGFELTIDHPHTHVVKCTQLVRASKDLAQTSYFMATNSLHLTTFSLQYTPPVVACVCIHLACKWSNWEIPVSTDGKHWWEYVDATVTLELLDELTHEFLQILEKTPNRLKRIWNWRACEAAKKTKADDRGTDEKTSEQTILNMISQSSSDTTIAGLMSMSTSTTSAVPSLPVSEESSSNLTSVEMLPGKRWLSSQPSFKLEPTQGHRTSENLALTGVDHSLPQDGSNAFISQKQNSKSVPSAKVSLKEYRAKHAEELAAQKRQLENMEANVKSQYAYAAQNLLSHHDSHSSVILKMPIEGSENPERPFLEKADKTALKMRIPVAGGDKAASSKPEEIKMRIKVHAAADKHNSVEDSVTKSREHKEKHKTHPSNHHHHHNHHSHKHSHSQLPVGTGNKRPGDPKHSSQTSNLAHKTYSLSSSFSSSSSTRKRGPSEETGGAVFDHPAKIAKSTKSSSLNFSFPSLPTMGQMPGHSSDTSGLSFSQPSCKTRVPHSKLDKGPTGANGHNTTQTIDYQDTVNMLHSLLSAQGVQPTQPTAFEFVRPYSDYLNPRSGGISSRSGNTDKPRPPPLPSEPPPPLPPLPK
CDK9/cyclin T1, sequence (P50750 whole entry): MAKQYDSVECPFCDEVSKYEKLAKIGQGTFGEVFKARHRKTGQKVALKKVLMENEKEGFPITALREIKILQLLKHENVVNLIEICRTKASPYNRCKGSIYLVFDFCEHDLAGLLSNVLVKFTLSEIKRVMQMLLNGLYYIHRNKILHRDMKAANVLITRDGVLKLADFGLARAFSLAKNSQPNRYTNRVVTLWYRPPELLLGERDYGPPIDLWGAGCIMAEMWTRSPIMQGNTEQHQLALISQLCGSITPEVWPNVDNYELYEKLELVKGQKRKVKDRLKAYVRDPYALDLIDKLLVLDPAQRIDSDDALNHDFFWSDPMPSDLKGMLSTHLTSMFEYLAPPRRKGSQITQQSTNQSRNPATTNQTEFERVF
Cyclin-dependent kinase 5/CDK5 activator 1, sequence (Q00535 whole entry): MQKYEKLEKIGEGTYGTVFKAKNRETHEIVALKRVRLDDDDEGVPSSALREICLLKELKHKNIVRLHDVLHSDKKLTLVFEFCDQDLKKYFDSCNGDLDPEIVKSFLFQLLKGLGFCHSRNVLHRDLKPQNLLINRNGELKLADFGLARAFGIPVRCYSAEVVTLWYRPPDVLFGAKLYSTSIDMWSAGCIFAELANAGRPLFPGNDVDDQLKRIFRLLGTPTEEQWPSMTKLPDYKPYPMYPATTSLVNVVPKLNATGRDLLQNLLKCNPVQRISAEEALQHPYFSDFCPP
Cyclin-dependent kinase 5/CDK5 activator 1, sequence (Q15078 whole entry, further chain): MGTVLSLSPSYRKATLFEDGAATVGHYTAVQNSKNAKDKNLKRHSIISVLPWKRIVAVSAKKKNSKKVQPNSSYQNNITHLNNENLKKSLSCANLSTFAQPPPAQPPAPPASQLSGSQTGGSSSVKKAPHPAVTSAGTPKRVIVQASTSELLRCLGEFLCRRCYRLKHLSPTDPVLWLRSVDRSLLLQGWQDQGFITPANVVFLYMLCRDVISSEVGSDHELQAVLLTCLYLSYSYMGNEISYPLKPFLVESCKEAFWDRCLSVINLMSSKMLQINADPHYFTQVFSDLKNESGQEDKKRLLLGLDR
CDK9/Cyclin T, sequence (O60563 whole entry): as the sequence (O60563 whole entry) above
CDK9/Cyclin T, sequence (P50750 whole entry): as the sequence (P50750 whole entry) above
CDK9/Cyclin T, sequence (O60583 whole entry, further chain): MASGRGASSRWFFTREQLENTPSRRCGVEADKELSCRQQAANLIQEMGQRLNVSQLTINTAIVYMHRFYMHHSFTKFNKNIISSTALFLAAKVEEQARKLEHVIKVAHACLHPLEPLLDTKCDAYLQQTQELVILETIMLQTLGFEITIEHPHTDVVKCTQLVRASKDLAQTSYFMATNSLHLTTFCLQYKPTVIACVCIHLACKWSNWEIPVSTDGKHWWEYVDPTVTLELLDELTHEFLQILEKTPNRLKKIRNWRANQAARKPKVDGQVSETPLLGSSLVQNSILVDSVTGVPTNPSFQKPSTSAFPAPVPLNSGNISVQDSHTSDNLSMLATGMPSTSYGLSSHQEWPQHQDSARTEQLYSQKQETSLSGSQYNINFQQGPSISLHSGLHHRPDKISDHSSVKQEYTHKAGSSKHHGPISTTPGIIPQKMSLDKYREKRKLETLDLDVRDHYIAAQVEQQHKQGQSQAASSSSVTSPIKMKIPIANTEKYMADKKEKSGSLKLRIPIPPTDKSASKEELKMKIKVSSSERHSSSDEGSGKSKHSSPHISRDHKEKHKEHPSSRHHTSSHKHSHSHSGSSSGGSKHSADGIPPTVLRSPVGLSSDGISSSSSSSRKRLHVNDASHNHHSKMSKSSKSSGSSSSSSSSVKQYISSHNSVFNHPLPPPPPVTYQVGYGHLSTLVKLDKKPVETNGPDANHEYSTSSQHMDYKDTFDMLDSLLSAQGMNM

SMILES: CNc1nc(C)c(-c2nc(Nc3cccc(S(N)(=O)=O)c3)ncc2F)s1 [ASNUCICLIB]
Activity [1]: 28.88% | Activity [2]: 16.81% | viability at 1 µM [3]: 77% | Activity [4]: 0.95% | Activity [5]: Active | Activity [6]: 15.19% | Activity [7]: 6.85% | Activity [8]: 53.11% | Activity [9]: 1.21%

SMILES: C[C@@]1(O)CCC[C@H]1n1c(=O)c(C(F)F)cc2cnc(NC3CCN(S(C)(=O)=O)CC3)nc21 [EBVACICLIB]
Ki [10]: < 19 nM

SMILES: CC[C@@H](Nc1nc(NCc2cnc(C)cc2C)c2ncn(C(C)C)c2n1)[C@H](C)O
Ki [45]: 5 nM | Ki [46]: 578 nM

Now from value to compound, other results behind:

GI50 [11]: 154 nM | GI50 [12]: 65 nM | GI50 [13]: 162 nM | GI50 [15]: 64 nM | Ki [17]: 26 nM | GI50 [18]: 81 nM | GI50 [19]: 32 nM | GI50 [20]: 80 nM | GI50 [22]: 129 nM | Ki [23]: 23 nM | GI50 [25]: 18 nM | Ki [26]: 77 nM | GI50 [27]: 25 nM | GI50 [30]: 119 nM | Ki [31]: 5 nM
SMILES: Cn1cc(-c2nc(Nc3cccc(S(N)(=O)=O)c3)ncc2F)cn1
GI50 [14]: 149 nM | GI50 [16]: 79 nM | GI50 [21]: 83 nM | GI50 [24]: 106 nM | GI50 [28]: 90 nM | GI50 [29]: 109 nM

GI50 [11]: 695 nM | GI50 [12]: 186 nM | GI50 [13]: 527 nM | GI50 [15]: 194 nM | Ki [17]: 17 nM | GI50 [18]: 291 nM | GI50 [19]: 88 nM | GI50 [20]: 108 nM | inhibition [37]: Dose-Dependent Effect | GI50 [22]: 472 nM | Ki [23]: 1 nM | GI50 [25]: 74 nM | inhibition [39]: Dose-Dependent Effect | Ki [26]: 33 nM | GI50 [27]: 145 nM | GI50 [30]: 183 nM | Ki [31]: 5 nM
SMILES: Cn1cc(-c2nc(Nc3ccc(S(N)(=O)=O)cc3)ncc2Cl)cn1
Activity [32]: 1.19% | Activity [1]: 27.94% | GI50 [14]: 780 nM | Activity [2]: 18.5% | Activity [33]: 9.6% | viability at 1 µM [3]: 78.4% | Activity [34]: inactive | GI50 [16]: 545 nM | Activity [4]: 1.83% | Activity [35]: 86.28% | Activity [36]: 4.24% | Activity [6]: 4.78% | GI50 [21]: 444 nM | viability at 0.5 µM [38]: 77% | GI50 [24]: 768 nM | Activity [40]: Active | Activity [41]: Active | Activity [7]: 5.01% | Activity [42]: 0.51% | Activity [43]: 12.2% | Activity [44]: 7.94% | GI50 [28]: 558 nM | GI50 [29]: 285 nM | Activity [8]: 52.06% | Activity [9]: 2.11%
